In US20120064056A1, “DICHLORACETATE IN COMBINATION WITH CLINICALLY HIGH LEVELS OF CARDIOPROTECTIVE OR HEMODYNAMIC DRUGS” (THE GOVERNORS OF THE UNIVERSITY OF ALBERTA TEC Edmonton, priority 2002, published 2012):
“And” between values parts separate entries of the source, which are not always exact repeats. Identical values can stand only once.

Key:
isolated rat hearts [1] = experiment: Isolated working rat heart, aerobic perfusion: cardiac function and efficiency; parameters: Cardiac Work (CO · PSP): unit not given beside the values; details: for effect on functional parameters shown in Table 1 (heart rate, peak systolic pressure, HR×PSP), in words: compared to control (DCA and dobutamine: compared to dobutamine alone)
Method: (§1) Rat hearts were cannulated for isolated working heart perfusions as described in “An imbalance between glycolysis and glucose oxidation is a possible explanation for the detrimental effects of high levels of fatty acids during aerobic reperfusion of ischemic hearts.”, (J Pharmacol Exp Ther. 264:135 (1993); herein incorporated by reference. In brief, male Sprague-Dawley rats (0.3-0.35 kg) were anesthetized with pentobarbital sodium (60 mg/kg IP) and hearts were quickly excised, the aorta was cannulated and a retrograde perfusion at 37° C. was initiated at a hydrostatic pressure of 60 mm Hg. Hearts were trimmed of excess tissue, and the pulmonary artery and the opening to the left atrium were then cannulated. After 15 min of Langendorff perfusion, hearts were switched to the working mode by clamping the aortic inflow line from the Langendorff reservoir and opening the left atrial inflow line. The perfusate was delivered from an oxygenator into the left atrium at a constant preload pressure of 11 mm Hg. Perfusate was ejected from spontaneously beating hearts into a compliance chamber (containing 1 ml of air) and into the aortic outflow line. The afterload was set at a hydrostatic pressure of 80 mm Hg. All working hearts were perfused with Krebs'-Henseleit solution containing calcium 2.5 mmol/L, glucose 5.5 mmol/L, 3% bovine serum albumin (Fraction V, Boehringer Mannheim), and with 1.2 mmol/L palmitate. Palmitate was bound to the albumin as described previously (Saddik M., et al. J Biol. Chem. 267:3825-3831 (1992)). The perfusate was recirculated, and pH was adjusted to 7.4 by bubbling with a mixture containing 95% O2 and 5% CO2. For the aerobic model hearts, all tested compounds were introduced into the heart 5 minutes into the working mode following Langendorff Perfusion.
Spontaneously beating hearts were used in all perfusions. Heart rate and aortic pressure were measured with a Biopac Systems Inc. blood pressure transducer connected to the aortic outflow line. Cardiac output and aortic flow were measured with Transonic T206 ultrasonic flow probes in the preload and afterload lines, respectively. Coronary flow was calculated as the difference between cardiac output and aortic flow. The O2 contents of the perfusate entering and leaving the heart were measured using YSI™ micro oxygen electrodes placed in the preload and pulmonary arterial lines, respectively. Myocardial O2 consumption (MVO2) was calculated according to the Fick principle, using coronary flow rates and the arteriovenous difference in perfusate O2 concentration. Cardiac work was calculated as the product of systolic pressure and cardiac output. Cardiac efficiency was defined as a ratio of cardiac work to MVO2.

isolated rat hearts [2] = experiment: Isolated working rat heart, aerobic perfusion: glycolysis and glucose oxidation; parameters: glycolytic rates (glycolysis) / glucose oxidation rates: unit not given here; details: for glycolytic rates (glycolysis): FIG. 2, 4, 6, 8, control 3.430±0.604
Method: as §1
Glycolysis and glucose oxidation were measured simultaneously by perfusing hearts with [5-^3H/U-^14C] glucose (Liu H., et al. Am J Physiol. 270:H72-H80 (1996); Taegtmeyer Het al. Am J Cardiol. 80:3A-10A (1997)). The total myocardial ^3H2O production and ^14CO2 production were determined at 10 minute intervals for the entirety of the aerobic period, 60 minutes for normal hearts and 30 minutes for the global ischemia and low flow demand ischemia models. In the global ischemia model, the total myocardial ^3H2O and ^14CO2 production were determined at 20 minute intervals for the 60 minute reperfusion period. In the low flow demand ischemia model, the total myocardial ^3H2O and ^14CO2 production were determined at 10 minute intervals for the 30 minute reperfusion period. Glucose oxidation rates were determined by quantitative measurement of ^14CO2 production as described previously (Barbour R. L., et al. Biochemistr. 1923:6503-6062 (1984)).

[3] = test system: isolated rat hearts subjected to global ischemia; experiment: Isolated working rat heart, global no flow ischemia and reperfusion: cardiac function and efficiency; details: for Aortic Outflow / Cardiac Output / Coronary Flow / HR × PSP / Heart Rate / Peak Systolic Pressure: post-ischemic reperfusion, DCA 2 mM, digoxin 3 nM, metoprolol 1 μM
Method: (§2) Hearts were trimmed of excess tissue, and the pulmonary artery and the opening to the left atrium were then cannulated. After 15 min of Langendorff perfusion, hearts were switched to the working mode by clamping the aortic inflow line from the Langendorff reservoir and opening the left atrial inflow line. The perfusate was delivered from an oxygenator into the left atrium at a constant preload pressure of 11 mm Hg. […] The afterload was set at a hydrostatic pressure of 80 mm Hg. […] Palmitate was bound to the albumin as described previously ([…]., et al. J Biol. Chem. 267:3825-3831 (1992)). […] For the aerobic model hearts, all tested compounds were introduced into the heart 5 minutes into the working mode following Langendorff Perfusion. Spontaneously beating hearts were used in all perfusions. Heart rate and aortic pressure were measured with a Biopac Systems Inc. blood pressure transducer connected to the aortic outflow line. Cardiac output and aortic flow were measured with Transonic […] ultrasonic flow probes in the preload and afterload lines, respectively. Coronary flow was calculated as the difference between cardiac output and aortic flow. […] Cardiac work was calculated as the product of systolic pressure and cardiac output. Cardiac efficiency was defined as a ratio of cardiac work to MVO2. […] All tested compounds were introduced into the perfusate five minutes prior to reperfusion.

[4] = test system: isolated rat hearts subjected to global ischemia; experiment: Isolated working rat heart, global ischemia and reperfusion: glycolysis and glucose oxidation; details: FIG. 10, FIG. 16, DCA 2 mM, digoxin 3 nM, metoprolol 1 μM
Method: Hearts were trimmed of excess tissue, and the pulmonary artery and the opening to the left atrium were then cannulated. After 15 min of Langendorff perfusion, hearts were switched to the working mode by clamping the aortic inflow line from the Langendorff reservoir and opening the left atrial inflow line. The perfusate was delivered from an oxygenator into the left atrium at a constant preload pressure of 11 mm Hg. […] The afterload was set at a hydrostatic pressure of 80 mm Hg. […] Palmitate was bound to the albumin as described previously ([…]., et al. J Biol. Chem. 267:3825-3831 (1992)). […] For the aerobic model hearts, all tested compounds were introduced into the heart 5 minutes into the working mode following Langendorff Perfusion. […] All tested compounds were introduced into the perfusate five minutes prior to reperfusion. […] Am J Physiol. 270:[…]. Am J Cardiol. 80:3A-10A (1997)). […] In the global ischemia model, the total myocardial ^3H2O and ^14CO2 production were determined at 20 minute intervals for the 60 minute reperfusion period. […] L., et al. Biochemistr. 1923:6503-6062 (1984)).

[5] = test system: isolated rat hearts subjected to low flow demand ischemia; experiment: Isolated working rat heart, low flow demand ischemia: cardiac function and efficiency; details: DCA 2 mM, diltiazem 0.8 μM, metoprolol 1 μM
Method: as §2, with “into initiation of aerobic perfusion.” for “prior to reperfusion.”

[6] = aerobically perfused, DCA 2 mM, diltiazem 0.8 μM, digoxin 3 nM, metoprolol 1 μM, dobutamine 1 μM
[7] = aerobically perfused, DCA 2 mM, diltiazem 0.8 μM, digoxin 3 nM, metoprolol 1 μM, dobutamine 1 μM, listed as digoxin
[8] = normal hearts, aerobic, DCA 2 mM, digoxin 3 nM, diltiazem 0.8 μM, dobutamine 1 μM, metoprolol 1 μM
[9] = low flow ischemia: aerobic period
[10] = low flow ischemia: ischemic period

Question: Which “Aortic Outflow” value (isolated rat hearts [1]; [6]) does the source give for `C[C@H]1O[C@@H](O[C@H]2[C@@H](O)C[C@H](O[C@H]3[C@@H](O)C[C@H](O[C@H]4CC[C@@]5(C)[C@H](CC[C@@H]6[C@@H]5C[C@@H](O)[C@]5(C)[C@@H](C7=CC(=O)OC7)CC[C@]65O)C4)O[C@@H]3C)O[C@@H]2C)C[C@H](O)[C@@H]1O` [Digoxin, digoxin] here?
Answer: 31 ± 1 mL/min

Question: What about the “Cardiac Output” value (isolated rat hearts [1]; [6]) of the same compound?
Answer: 52 ± 1 mL/min

Question: And the “Cardiac Work (CO · PSP)” value (isolated rat hearts [1]; [6])?
Answer: 67 ± 3

Question: And the “Coronary Flow” value (isolated rat hearts [1]; [6])?
Answer: 21 ± 1 mL/min

Question: What about the “HR × PSP” value (isolated rat hearts [1]; [6]) of the same compound?
Answer: 32 ± 1 beats · min^−1 · mmHg · 10^−2

Question: What about the “Heart Rate” value (isolated rat hearts [1]; [6]) of the same compound?
Answer: 258 ± 11 beats · min^−1

Question: And the “O2 Consumption” value (isolated rat hearts [1]; [6])?
Answer: 37 ± 3 μmolO2 · g dry wt^−1 · min^−1

Question: And the “Peak Systolic Pressure” value (isolated rat hearts [1]; [6])?
Answer: 129 ± 4 mmHg

Question: What about the “Aortic Outflow” value (isolated rat hearts [1]; [7]) of the same compound?
Answer: 31 ± 1 mL/min

Question: What about the “Cardiac Work (CO · PSP)” value (isolated rat hearts [1]; [7]) of the same compound?
Answer: 67±3

Question: And the “effect on functional parameters shown in Table 1 (heart rate, peak systolic pressure, HR×PSP), in words” value (isolated rat hearts [1]; normal hearts, aerobic)?
Answer: no significant effect

Question: What about the “glycolytic rates (glycolysis)” value (isolated rat hearts [2]; [8]) of the same compound?
Answer: 5.651±1.298

Question: What about the “Aortic Outflow” value [3] of the same compound?
Answer: 14 ± 3 mL/min

Question: What about the “Cardiac Output” value [3] of the same compound?
Answer: 34 ± 3 mL/min

Question: And the “Coronary Flow” value [3]?
Answer: 20 ± 1 mL/min

Question: And the “HR × PSP” value [3]?
Answer: 19 ± 2 beats · min^−1 · mmHg · 10^−2

Question: What about the “Heart Rate” value [3] of the same compound?
Answer: 207 ± 12 beats · min^−1

Question: And the “Peak Systolic Pressure” value [3]?
Answer: 93 ± 6 mmHg

Question: What about the “recovery of cardiac function of previously ischemic hearts compared to control, in words” value ([3]; reperfusion period, FIG. 11, FIG. 17) of the same compound?
Answer: significantly improves the recovery

Question: And the “recovery of cardiac work of previously ischemic hearts compared to control, in words” value ([3]; reperfusion period, FIG. 12, FIG. 18)?
Answer: significantly improve the recovery

Question: And the “recovery of oxygen consumption of previously ischemic hearts, in words” value ([3]; reperfusion period, FIG. 13, FIG. 19)?
Answer: significantly improve the recovery

Question: What about the “glycolytic rates as compared to control, in words” value [4] of the same compound?
Answer: neither DCA, digoxin, nor digoxin with DCA altered glycolytic rates

Question: Which results are given for `O=C(O)C(Cl)Cl` [DCA, dichloroacetate]?
Answer: Aortic Outflow (isolated rat hearts [1]; [6]): 30 ± 3 mL/min; Cardiac Efficiency (CW · O2^−1) (isolated rat hearts [1]; [6]): 1.69 ± 0.19; Cardiac Output (isolated rat hearts [1]; [6]): 49 ± 4 mL/min; Cardiac Work (CO · PSP) (isolated rat hearts [1]; [6]): 61 ± 5; Coronary Flow (isolated rat hearts [1]; [6]): 20 ± 1 mL/min; HR × PSP (isolated rat hearts [1]; [6]): 32 ± 1 beats · min^−1 · mmHg · 10^−2; Heart Rate (isolated rat hearts [1]; [6]): 239 ± 8 beats · min^−1; O2 Consumption (isolated rat hearts [1]; [6]): 38 ± 5 μmolO2 · g dry wt^−1 · min^−1; Peak Systolic Pressure (isolated rat hearts [1]; [6]): 125 ± 3 mmHg; effect on functional parameters shown in Table 2 incl. O2 consumption and cardiac efficiency, in words (isolated rat hearts [1]; normal hearts, aerobic, compared to control): no effect; effect on functional parameters shown in Table 1 (heart rate, peak systolic pressure, HR×PSP), in words (isolated rat hearts [1]; normal hearts, aerobic): no significant effect; increase in glucose oxidation (isolated rat hearts [2]; aerobic model): over 400%; increase in glycolysis (isolated rat hearts [2]; aerobic model): over 300%; glucose oxidation rates (isolated rat hearts [2]; normal hearts, aerobic, FIG. 1, 3, 5, 7, control 361±43, DCA 2 mM, digoxin 3 nM, diltiazem 0.8 μM, dobutamine 1 μM, metoprolol 1 μM): 1697±179 and 1526±79; glycolytic rates (glycolysis) (isolated rat hearts [2]; [8]): 8.917±3.060; Aortic Outflow [3]: 14 ± 6 mL/min; Cardiac Output [3]: 35 ± 5 mL/min; Coronary Flow [3]: 21 ± 1 mL/min; HR × PSP [3]: 18 ± 2 beats · min^−1 · mmHg · 10^−2; Heart Rate [3]: 208 ± 11 beats · min^−1; Peak Systolic Pressure [3]: 87 ± 9 mmHg; Aortic Outflow [5, 9]: 27 ± 3 mL/min; Cardiac Output [5, 9]: 50 ± 2 mL/min; Coronary Flow [5, 9]: 22 ± 1 mL/min; HR × PSP [5, 9]: 30 ± 1 beats · min^−1 · mmHg · 10^−2; Heart Rate [5, 9]: 214 ± 7 beats · min^−1; Peak Systolic Pressure [5, 9]: 139 ± 3 mmHg; Aortic Outflow [5, 10]: 13 ± 5 mL/min; Cardiac Output [5, 10]: 26 ± 5 mL/min; Coronary Flow [5, 10]: 13 ± 1 mL/min; HR × PSP [5, 10]: 30 ± 1 beats · min^−1 · mmHg · 10^−2; Heart Rate [5, 10]: 214 ± 7 beats · min^−1; Peak Systolic Pressure [5, 10]: 139 ± 3 mmHg
